Data reported in ChEMBL document CHEMBL1201862, “PubChem BioAssay data set” (2004).
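Compound exposure: 48 hours, 5 concentrations, 96-well plates. The concentration for 50% growth inhibition is given as GI50.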 The source made the active and inactive calls. Rule as the data show it: active = GI50 up to about 1.1 µM and inactive = higher.

What was measured:
Assay in all cases: inhibition of tumour cell growth, NCI panel, 48 h
A498 = system: A498
CCRF-CEM = system: CCRF-CEM
HT-29 = system: HT-29
K562 = system: K562
LOX IMVI = system: LOX IMVI
NCI-H226 = system: NCI-H226
NCI-H522 = system: NCI-H522
SF-539 = system: SF-539
SK-MEL-28 = system: SK-MEL-28
SK-MEL-5 = system: SK-MEL-5
SNB-19 = system: SNB-19
UACC-62 = system: UACC-62
HCT-116 = system: HCT-116
KM12 = system: KM12
M14 = system: M14
OVCAR-4 = system: OVCAR-4
OVCAR-5 = system: OVCAR-5
RXF 393 = system: RXF 393
A549 = system: A549

Measured: GI50

COc1ccc(/C(Cl)=C(\CN(C)C)c2ccc(OC)c(OC)c2)cc1OC
inactive: A498 > 100 µM | CCRF-CEM > 100 µM | HT-29 > 100 µM | K562 > 100 µM | LOX IMVI > 100 µM | NCI-H226 > 100 µM | NCI-H522 > 100 µM | SF-539 > 100 µM | SK-MEL-28 > 100 µM | SK-MEL-5 > 100 µM | SNB-19 > 100 µM | UACC-62 > 100 µM

COS(=O)c1cc(Cl)cc(Cl)c1O (stereo not drawn)
inactive: A498 > 100 µM | CCRF-CEM > 100 µM | HCT-116 > 100 µM | HT-29 > 100 µM | K562 > 100 µM | KM12 > 100 µM | LOX IMVI > 100 µM | M14 > 100 µM | NCI-H522 18 µM | OVCAR-4 > 100 µM | OVCAR-5 > 100 µM | RXF 393 > 100 µM | SF-539 > 100 µM | SK-MEL-28 > 100 µM | SNB-19 > 100 µM | UACC-62 > 100 µM

COC(=O)C(C)NP(=O)(N1CC1)N1CC1 (stereo not drawn)
inactive: A498 > 100 µM | A549 > 100 µM | CCRF-CEM 47.6 µM | HT-29 > 100 µM | K562 > 100 µM | KM12 > 100 µM | LOX IMVI 80 µM | M14 83 µM | NCI-H522 > 100 µM | OVCAR-4 > 100 µM | OVCAR-5 > 100 µM | RXF 393 > 100 µM | SF-539 > 100 µM | SK-MEL-28 > 100 µM | SK-MEL-5 > 100 µM | SNB-19 > 100 µM | UACC-62 61.8 µM

O=C1c2cc3c(cc2CC1Cc1ccc2c(c1)CCC2)CCC3 (stereo not drawn)
inactive: A498 32.3 µM | A549 64.4 µM | CCRF-CEM 44.6 µM | HCT-116 38.6 µM | HT-29 40 µM | K562 69.5 µM | KM12 > 100 µM | LOX IMVI 66.1 µM | M14 > 100 µM | NCI-H226 24.2 µM | NCI-H522 24.1 µM | OVCAR-4 82.6 µM | OVCAR-5 > 100 µM | RXF 393 57.7 µM | SF-539 33.3 µM | SK-MEL-28 > 100 µM | SK-MEL-5 57.8 µM | SNB-19 34.3 µM | UACC-62 52 µM

CCOC(=O)Cc1cnc(NC(NC(=O)CC)(C(F)(F)F)C(F)(F)F)s1
inactive: A498 > 100 µM | CCRF-CEM > 100 µM | HCT-116 > 100 µM | HT-29 > 100 µM | K562 > 100 µM | KM12 > 100 µM | LOX IMVI > 100 µM | M14 > 100 µM | NCI-H226 > 100 µM | NCI-H522 > 100 µM | OVCAR-5 > 100 µM | RXF 393 > 100 µM | SF-539 > 100 µM | SK-MEL-28 > 100 µM | SNB-19 > 100 µM | UACC-62 > 100 µM

COc1cc(C2c3cc4c(cc3[C@@H](Nc3ccc(Oc5ccccc5)cc3)C3COC(=O)[C@H]23)OCO4)cc(OC)c1O (stereo partly drawn)
inactive: A498 1.24 µM | HT-29 1.74 µM | K562 1.14 µM | KM12 4.57 µM | LOX IMVI 2.43 µM | NCI-H226 1.56 µM | NCI-H522 2.25 µM | OVCAR-4 7.11 µM | OVCAR-5 > 61 µM | RXF 393 1.29 µM | SK-MEL-28 > 42.3 µM | SK-MEL-5 1.58 µM | SNB-19 3.27 µM
active: A549 0.916 µM | CCRF-CEM 0.431 µM | HCT-116 0.979 µM | SF-539 0.536 µM | UACC-62 0.869 µM
